pEC50, pKi: −log10 of the molar value.

Data set [1] relates to Human immunodeficiency virus. Nature of the data set: Antiviral activity against HIV infected in human MT4 cells by XTT assay. Format: functional, organism-based. Particulars: Human immunodeficiency virus 1, MT4.
The target of the next data set is Protease (Human immunodeficiency virus 1, UniProt Q9YQ12). Nature of the data set: Inhibition of HIV1 protease expressed in Escherichia coli using DABCYL-gamma-Abu-Ser-Gln-ASN-Tyr-Pro-Ile-Val-Gln-EDANS as substrate after 20 mins by fluorescence assay.
A short description of data set [2]: Cytotoxicity against human MT4 cells after 5 days by XTT assay. Format: cell-based.
A short description of data set [3]: Apparent permeability from apical to basolateral side in human Caco2 cells at 10 uM after 60 mins. The format is ADME, cell-based. Particulars: Caco-2.
A short description of data set [4]: Intrinsic clearance in human liver microsomes after 30 mins by LC-MS/MS analysis. The format is ADME. Particulars: read-out: CLH.
Data set [5] deals with Human immunodeficiency virus 1. Nature of the data set: Antiviral activity against HIV1 RF infected in human MT2 cells after 4 to 7 days by ELISA. The format is functional, organism-based. Particulars: Human immunodeficiency virus 1, RF.
Data set [6] is described as follows: Intrinsic clearance in human liver microsomes after 0.5 to 30 mins by LC-MS/MS analysis. Format: ADME. Particulars: read-out: CLH.
A short description of data set [7]: Apparent permeability from apical to basolateral side in human Caco2 cells at 10 uM after 30 to 120 mins. Format: ADME, cell-based. The conditions noted are these: Caco-2.
A short description of data set [8]: Intrinsic clearance in human liver microsomes at 2 uM after 10 to 30 mins by LC-MS/MS analysis. The format is ADME. The conditions noted are these: read-out: CLH.

Protease, sequence (Q9YQ12 whole entry): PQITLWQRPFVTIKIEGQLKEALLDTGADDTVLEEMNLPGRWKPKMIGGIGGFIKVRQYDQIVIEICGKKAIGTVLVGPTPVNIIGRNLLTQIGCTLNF

Turning to `COC(=O)N[C@H](C(=O)NN(CCC[C@@](O)(Cc1ccccc1)C(=O)N[C@H]1c2ccccc2C[C@H]1O)Cc1ccc(-c2ccncc2)cc1)C(C)(C)C`, the negative logarithm of the EC50 (pEC50) in [1] was 6.77.

On to `CNC(=O)[C@H](C)NC(=O)[C@@](O)(CCCN(Cc1ccc(Br)cc1)NC(=O)[C@@H](NC(=O)OC)C(C)(C)C)Cc1ccccc1`, for which the pKi at Protease is 7.74. Besides, the CC50 at 120 h in data set [2] was greater than 10000 nM. In [1], this compound gave a negative logarithm of the EC50 (pEC50) of 5.59.

As for `CNC(=O)[C@@H](NC(=O)[C@@](O)(CCCN(Cc1ccc(-c2cccnc2)cc1)NC(=O)[C@@H](NC(=O)OC)C(C)(C)C)Cc1ccccc1)C(C)(C)C`, in data set [3], the Papp A→B at 1 h, 10 µM is less than 1 ×10⁻⁶ cm/s. Besides, the pKi on Protease was 8.51. Also, the CC50 at 120 h in [2] is greater than 50000 nM. The microsomal CLint in [4] is 63 µL/min/mg. This compound also showed a pEC50 in [1] of 6.00.

Regarding `CNC(=O)[C@@H](NC(=O)[C@@](O)(CCCN(Cc1ccc(-c2nccs2)cc1)NC(=O)[C@@H](NC(=O)OC)C(C)(C)C)Cc1ccccc1)C(C)(C)C`, the negative-log Ki (pKi) on Protease is 8.46. In data set [2], this compound had a CC50 at 120 h greater than 50000 nM. In [1], this compound showed a pEC50 of 5.43.

Turning to `CNC(=O)[C@@H](NC(=O)[C@@](O)(CCCN(Cc1ccc(-c2ccncc2)cc1)NC(=O)[C@@H](NC(=O)OC)C(C)(C)C)Cc1ccccc1)C(C)(C)C`, the Papp A→B at 1 h, 10 µM in data set [3] worked out at 1.9 ×10⁻⁶ cm/s. The negative logarithm of the Ki (pKi) on Protease is 8.46. In data set [2], this compound yielded a CC50 at 120 h greater than 50000 nM. The microsomal CLint in data set [4] is 20 µL/min/mg. Also, the pEC50 in data set [1] is 5.96.

Take `CNC(=O)[C@@H](NC(=O)[C@@](O)(CCCN(Cc1ccc(Br)cc1)NC(=O)[C@@H](NC(=O)OC)C(C)(C)C)Cc1ccccc1)C(C)(C)C`: the Papp A→B at 1 h, 10 µM in data set [3] was 4.6 ×10⁻⁶ cm/s. The compound further had a pKi on Protease of 8.21. Moreover, the cytotoxic concentration (CC50) at 120 h in data set [2] was greater than 10000 nM. The microsomal CLint in data set [4] is 180 µL/min/mg. The compound further showed a negative-log EC50 (pEC50) in [1] of 5.70.

`CNC(=O)[C@@H](NC(=O)[C@@](O)(CCCN(Cc1ccc(-c2ccsc2)cc1)NC(=O)[C@@H](NC(=O)OC)C(C)(C)C)Cc1ccccc1)C(C)(C)C`: the pKi at Protease is 8.44. The 50% cytotoxic concentration (CC50) at 120 h in data set [2] is greater than 50000 nM. The compound also gave a pEC50 in [1] of 6.00.

With `CNC(=O)[C@@H](NC(=O)[C@@](O)(CCCN(Cc1ccc(C#Cc2ccccn2)cc1)NC(=O)[C@@H](NC(=O)OC)C(C)(C)C)Cc1ccccc1)C(C)(C)C`, the pKi on Protease was 8.15. The compound further yielded a CC50 at 120 h in data set [2] greater than 50000 nM. For the same compound, the pEC50 in [1] was 5.92.

In turn, `CNC(=O)[C@@H](NC(=O)[C@@](O)(CCCN(Cc1ccc(Br)cc1)NC(=O)[C@@H](NC(=O)OC)C(C)(C)C)Cc1ccccc1)C(C)C` gave a pKi at Protease of 8.57. The compound also registered a CC50 at 120 h in [2] greater than 10000 nM.

As to `COC(=O)N[C@H](C(=O)NN(CCC[C@@](O)(Cc1ccccc1)C(=O)N[C@H](CO)C(C)(C)C)Cc1ccc(Br)cc1)C(C)(C)C`, the pKi on Protease was 6.89. The compound further came in with a CC50 at 120 h in data set [2] greater than 10000 nM. This compound had a pEC50 in data set [1] of less than 5.00.

At Protease, `CNC(=O)[C@@H](NC(=O)[C@@](O)(CCCN(Cc1ccc(-c2ccc3c(c2)OCO3)cc1)NC(=O)[C@@H](NC(=O)OC)C(C)(C)C)Cc1ccccc1)C(C)(C)C` had a negative-log Ki (pKi) of 8.32. The compound also showed a CC50 at 120 h in [2] greater than 50000 nM. The same compound gave a pEC50 in [1] of 5.92.

In turn, `CNC(=O)[C@@H](NC(=O)[C@@](O)(CCCN(Cc1ccc(C#Cc2ccncc2)cc1)NC(=O)[C@@H](NC(=O)OC)C(C)(C)C)Cc1ccccc1)C(C)(C)C` gave a pKi on Protease of 8.18. This compound displayed a CC50 at 120 h in [2] greater than 50000 nM. Further, the pEC50 in data set [1] was 5.05.

With `CNC(=O)[C@@H](NC(=O)[C@@](O)(CCCN(Cc1ccc(-c2ccccc2)cc1)NC(=O)[C@@H](NC(=O)OC)C(C)(C)C)Cc1ccccc1)C(C)(C)C`, the Papp A→B at 1 h, 10 µM in data set [3] was determined as 21 ×10⁻⁶ cm/s. On Protease, this compound showed a pKi of 8.34. In addition, the CC50 at 120 h in [2] is greater than 50000 nM. Moreover, the microsomal CLint in [4] is greater than 300 µL/min/mg. The pEC50 in [1] was 6.00.

On to `CNC(=O)[C@@H](NC(=O)[C@@](O)(CCCN(Cc1ccc(C#Cc2cccnc2)cc1)NC(=O)[C@@H](NC(=O)OC)C(C)(C)C)Cc1ccccc1)C(C)(C)C`, for which the Papp A→B at 1 h, 10 µM in data set [3] came out at 6.1 ×10⁻⁶ cm/s. The compound further had a pKi on Protease of 8.47. For the same compound, the CC50 at 120 h in data set [2] is greater than 50000 nM. Moreover, the microsomal CLint in data set [4] is greater than 300 µL/min/mg. The same compound gave a pEC50 in data set [1] of 5.68.

The compound `CNC(=O)[C@H](CC(C)C)NC(=O)[C@@](O)(CCCN(Cc1ccc(Br)cc1)NC(=O)[C@@H](NC(=O)OC)C(C)(C)C)Cc1ccccc1` had a pKi at Protease of 7.19. This compound also yielded a CC50 at 120 h in [2] greater than 10000 nM. The compound further gave a pEC50 in data set [1] of less than 5.00.

On Protease, `CNC(=O)[C@@H](NC(=O)[C@@](O)(CCCN(Cc1ccc(-c2ccccn2)cc1)NC(=O)[C@@H](NC(=O)OC)C(C)(C)C)Cc1ccccc1)C(C)(C)C` gave a pKi of 8.20. In data set [2], the CC50 at 120 h was greater than 50000 nM. Moreover, the pEC50 in [1] is 5.31.

For `CNC(=O)[C@@H](NC(=O)[C@](O)(CCCN(Cc1ccc(Br)cc1)NC(=O)[C@@H](NC(=O)OC)C(C)(C)C)Cc1ccccc1)C(C)(C)C`, the negative-log Ki (pKi) at Protease was less than 5.30. In data set [2], this compound registered a CC50 at 120 h greater than 10000 nM. The compound also gave a pEC50 in [1] of less than 5.00.

`COC(=O)N[C@H](C(=O)N[C@@H](Cc1ccccc1)[C@@H](O)CN(Cc1ccc(-c2ccccn2)cc1)NC(=O)[C@@H](NC(=O)OC)C(C)(C)C)C(C)(C)C` [ATAZANAVIR]: in data set [5], the pEC50 is 8.41. The microsomal CLint in [6] turned out to be 140 µL/min/mg. For the same compound, in data set [7], the Papp A→B at 10 µM stood at 5.3 ×10⁻⁶ cm/s. The microsomal CLint at 2 µM in data set [8] was 90 µL/min/mg.

Regarding `CNC(=O)[C@H](Cc1ccccc1)NC(=O)[C@@](O)(CCCN(Cc1ccc(Br)cc1)NC(=O)[C@@H](NC(=O)OC)C(C)(C)C)Cc1ccccc1`, the pKi on Protease was 6.77. In data set [2], this compound yielded a CC50 at 120 h greater than 10000 nM. For the same compound, in data set [1], the pEC50 was 5.09.

Take `CNC(=O)[C@@H](NC(=O)[C@@](CCCN(Cc1ccc(Br)cc1)NC(=O)[C@@H](NC(=O)OC)C(C)(C)C)(Cc1ccccc1)O[Si](C)(C)C(C)(C)C)C(C)(C)C`: the pKi at Protease is 5.57. The 50% cytotoxic concentration (CC50) at 120 h in data set [2] was greater than 10000 nM. This compound showed a pEC50 in data set [1] of less than 5.00.

Source of the values: ChEMBL document CHEMBL3217614, “HIV-1 protease inhibitors with a tertiary alcohol containing transition-state mimic and various P2 and P1 substituents” (Medchemcomm, 2011).
